ChEMBL document CHEMBL4715688, “Discovery, Optimization, and in Vivo Evaluation of Benzimidazole Derivatives AM-8508 and AM-9635 as Potent and Selective PI3Kδ Inhibitors” (J Med Chem, 2016)
In brackets after ≈: the same amount, converted by molar mass.

Legend:
[1] = Aqueous solubility of the compound in PBS buffer at pH 7.4 incubated for 72 hrs by HPLC analysis; assay type: physicochemical
[2] = Metabolic stability in human liver microsomes assessed as metabolic turnover at 1 uM measured after 30 mins in presence of NADPH by LC/MS analysis; assay type: ADME, Microsome; conditions: read-out: Drug metabolism
[3] = Metabolic stability in rat liver microsomes assessed as metabolic turnover at 1 uM measured after 30 mins in presence of NADPH by LC/MS analysis; assay type: ADME, Microsome; conditions: read-out: Drug metabolism
[4] = Clearance in male Sprague-Dawley rat at 0.5 mg/kg, iv; assay type: ADME, organism-based; conditions: in vivo
[5] = Unbound clearance in male Sprague-Dawley rat at 0.5 mg/kg, iv; assay type: ADME, organism-based; conditions: in vivo
[6] = Oral bioavailability in male Sprague-Dawley rat at 2 mg/kg; assay type: ADME, organism-based; conditions: in vivo
[7] = Clearance in male Sprague-Dawley rat at 0.72 mg/kg, iv; assay type: ADME, organism-based; conditions: in vivo
[8] = Clearance in male Sprague-Dawley rat at […], iv; assay type: ADME, organism-based; conditions: in vivo, dose 0.71 mg/kg
[9] = Clearance in male Sprague-Dawley rat at 0.8 mg/kg, iv; assay type: ADME, organism-based; conditions: in vivo

solubility at 72 h [1] [µM] | metabolised at 0.5 h, 1 µM [2] [%] | metabolised at 0.5 h, 1 µM [3] [%] | clearance [4] [mL/min/kg] | CL free [5] [mL/min/kg] | bioavailability [6] [%] | clearance [7] [mL/min/kg] | clearance [8] [mL/min/kg] | clearance [9] [mL/min/kg] | Compound
401 (≈ 157 µg/mL) | 15 | 28 | – | 460 | – | 46 | – | – | C[C@H](Nc1ncnc(N)c1C#N)c1nc2ccc(F)cc2n1-c1cccc(F)c1
474 (≈ 177 µg/mL) | < 10 | < 10 | – | 43.3 | 45 | – | 15.5 | – | C[C@H](Nc1ncnc(N)c1C#N)c1nc2ccc(F)cc2n1-c1cccnc1
353 (≈ 138 µg/mL) | < 10 | 22 | 29.7 | 300 | – | – | – | – | C[C@H](Nc1ncnc(N)c1C#N)c1nc2ccc(F)cc2n1-c1ccc(F)cc1
500 (≈ 187 µg/mL) | < 10 | < 10 | 16.2 | 73.3 | 58 | – | – | – | C[C@H](Nc1ncnc(N)c1C#N)c1nc2ccc(F)cc2n1-c1ccccn1
500 (≈ 226 µg/mL) | < 10 | < 10 | – | 205 | – | – | – | 71.7 | C[C@H](Nc1ncnc(N)c1C#N)c1nc2ccc(F)cc2n1-c1cccc(S(C)(=O)=O)c1

The next lines start with the compound.

Compound | solubility at 72 h [1] [µM] | metabolised at 0.5 h, 1 µM [2] [%] | metabolised at 0.5 h, 1 µM [3] [%] | clearance [4] [mL/min/kg] | CL free [5] [mL/min/kg] | bioavailability [6] [%] | clearance [7] [mL/min/kg] | clearance [8] [mL/min/kg] | clearance [9] [mL/min/kg]
C[C@H](Nc1ncnc(N)c1C#N)c1nc2ccc(F)cc2n1-c1ccccc1 | 374 (≈ 140 µg/mL) | < 10 | 26 | 40.2 | 447 | – | – | – | –
C[C@H](Nc1ncnc(N)c1C#N)c1nc2ccc(F)cc2n1-c1cncc(F)c1 | 500 (≈ 196 µg/mL) | < 10 | < 10 | 16.5 | 51.7 | 41 | – | – | –
C[C@H](Nc1ncnc(N)c1C#N)c1nc2ccc(F)cc2n1-c1cc(F)cc(F)c1 | 305 (≈ 125 µg/mL) | 11 | 30 | 44 | 338 | – | – | – | –
